Test results from patent US20260014235A1, “METHODS OF PROMOTING REMYELINATION” (Mallinckrodt Pharmaceuticals Ireland Limited, priority 2019, published 2026).
Marks after values point to notes of the source that are not given here.

System: mouse model of cuprizone demylelination
Assay: Remyelination in gray matter (hippocampus) via quantification of PLP, cuprizone/rapamycin mouse model
Assay type: in vivo, C57BL/6 mice
Conditions: 6 weeks treatment after 12 weeks cuprizone co-administered with rapamycin, RCI 10 U/kg
Procedure: The hypothesis that repository corticotropin injection (RCI) accelerates remyelination in a mouse model of cuprizone demylelination was tested. C57BL/6 mice were fed 0.3% cuprizone co-administered with rapamycin for 12 weeks to induce demyelination and inhibit spontaneous remyelination. […] Mice were treated for another 6 weeks with RCI, triiodothyronine (T3, positive control), or vehicle (negative control). Remyelination was assayed in gray matter (hippocampus) via quantification of myelin proteolipid protein (PLP) and in white matter (corpus callosum) via p-Phenylenediamine (PPD) staining. […] Of note-increased remyelination was not observed at higher doses of RCI in this rodent model (data not shown).

In the case of `N[C@@H](Cc1cc(I)c(Oc2ccc(O)c(I)c2)c(I)c1)C(=O)O` [Positive Control, triiodothyronine], the “Mean PLP (% Area Covered)” value is reported as 40.8** % Area Covered.
